# Key:
# KEAP1-SNAP protein = target: T1, KEAP1-SNAP protein (Homo sapiens, UniProt P16455+Q14145, A127T/A154D/C150Q/C62A/E30R/G131K/G132T/G153L/K125A/K32I/L33F/M134L/N157G/Q115S/Q116H/R128A/R135S/S151G/S152D/S159E); experiment: Probe dose response: labeling of KEAP1-SNAP fusion in live cells (Western blot); assay type: cell-based
# T1 construct: expressed in transfected cells; host or cells: HEK293T, lentiviral transduction with pDC-006, blasticidin selection
# Procedure: PP1 close response and viability assay: Dose response—Each well of a 6-well plate was seeded with 300,000 HEK293T cells stably expressing either SNAP-FLAG or KEAP-SNAP. After reaching ˜90% confluency the growth media was removed, cells washed with DPBS, and treated with varying concentrations (0, 0.5, 1, 5, 15, 45 μM) of photoproximity probe PP1 in 500 μL serum-free DMEM for 2 hours at 37° C. Post treatment, media was aspirated and non-reacted probe washed out with 3 mL full DMEM over 40 minutes, changing the media twice. Cells were harvested, washed, and lysed in DPBS containing protease inhibitor using a tip sonicator. Lysate was normalized to 1 mg/mL then diluted with loading buffer and run on SDS-PAGE gel that was transferred by western blot to nitrocellulose. The nitrocellulose membrane was stained for biotin and Flag-Tag using streptavidin IR dye (Li-cor #926-32230; Li-cor Biosciences, Lincoln, Nebr., United States of America) and anti-Flag (Sigma #F3165, Sigma-Aldrich, St. Louis, Mo., United States of America; Li-cor #926-68072, Li-cor Biosciences, Lincoln, Nebr., United States of America). Fluorescence images were collected using an Odyssey infrared imager (Li-cor Biosciences, Lincoln, Nebr., United States of America).
# Both C- and N-terminal SNAP-Tag fusions of full-length, human KEAP1, in each case separated by a short linker were cloned. […] Both C- and N-terminal SNAP fusions were functional, as indicated by dose-dependent labeling with PP1 in live cells. […] Finally, it was expected that identification of probe-labeled binding partners, and therefore proteins proximal to KEAP1 in cells, would be improved by quantitative proteomic differentiation of enriched vs. background proteins. Therefore, SILAC-labeled cultures expressing both N-terminal (referred to as SNAP-KEAP1) and C-terminal (referred to as KEAP1-SNAP) fusion proteins with light and heavy arginine and lysine were prepared. Matched cultures of heavy and light cells, each expressing the same SNAP-KEAP1 or KEAP1-SNAP construct, were then treated with PP1 probe or vehicle for 2 hr. […]
# [1] = test system: HEK293T cells stably expressing SNAP-FLAG; experiment: Viability assay (CellTiter-Glo, relative ATP content); assay type: cell-based, human; details: 2 hours at 37° C.
# Procedure: Viability assay: HEK293T cells stably expressing SNAP-FLAG were seeded with at 5,000 cells per well in 50 μL DMEM in a 96-well plate. Twenty-four hours later, cells were treated with a varying concentration (0, 0.5, 1, 5, 15, 45 μM in sextuplicate) of photoproximity probe PP1 in a total volume of 100 μL DMEM. After 2 hours at 37° C., a 100 μL of CellTiter-Glo® (Promega Corporation, Madison, Wis., United States of America; 5-fold DPBS dilution) was added and the plate imaged using a SYNERGY™ Neo HST plate reader (BioTek, Winooski, Vt., United States of America).
# To determine if AC1 affects cell viability, a viability assay was performed. Briefly, HEK293T cells stably expressing Snap-Flag were seeded at 5,000 cells per well in 100 μL DMEM in a 96-well plate. Upon >90% confluency, media was gently removed and cells were treated with a varying concentration (0, 1, 5, 10, 15, 20, 50 uM) in sextuplicate of AC-1 in a total volume of 75 μL DMEM. After 2 hours at 37° C., media was aspirated and cells were gently washed with […] of serum free DMEM. […] Luminescence was recorded using a SYNERGY™ Neo HST plate reader (BioTek, Winooski, Vt., United States of America).
# HEK293T cells stably expressing Snap-Flag were seeded at 5,000 cells per well in 100 μL DMEM in a 96-well plate. […] Luminescence was recorded using a SYNERGY™ Neo HST plate reader (BioTek, Winooski, Vt., United States of America).
# T1 sequence (Q14145+P16455 fused with the stated changes): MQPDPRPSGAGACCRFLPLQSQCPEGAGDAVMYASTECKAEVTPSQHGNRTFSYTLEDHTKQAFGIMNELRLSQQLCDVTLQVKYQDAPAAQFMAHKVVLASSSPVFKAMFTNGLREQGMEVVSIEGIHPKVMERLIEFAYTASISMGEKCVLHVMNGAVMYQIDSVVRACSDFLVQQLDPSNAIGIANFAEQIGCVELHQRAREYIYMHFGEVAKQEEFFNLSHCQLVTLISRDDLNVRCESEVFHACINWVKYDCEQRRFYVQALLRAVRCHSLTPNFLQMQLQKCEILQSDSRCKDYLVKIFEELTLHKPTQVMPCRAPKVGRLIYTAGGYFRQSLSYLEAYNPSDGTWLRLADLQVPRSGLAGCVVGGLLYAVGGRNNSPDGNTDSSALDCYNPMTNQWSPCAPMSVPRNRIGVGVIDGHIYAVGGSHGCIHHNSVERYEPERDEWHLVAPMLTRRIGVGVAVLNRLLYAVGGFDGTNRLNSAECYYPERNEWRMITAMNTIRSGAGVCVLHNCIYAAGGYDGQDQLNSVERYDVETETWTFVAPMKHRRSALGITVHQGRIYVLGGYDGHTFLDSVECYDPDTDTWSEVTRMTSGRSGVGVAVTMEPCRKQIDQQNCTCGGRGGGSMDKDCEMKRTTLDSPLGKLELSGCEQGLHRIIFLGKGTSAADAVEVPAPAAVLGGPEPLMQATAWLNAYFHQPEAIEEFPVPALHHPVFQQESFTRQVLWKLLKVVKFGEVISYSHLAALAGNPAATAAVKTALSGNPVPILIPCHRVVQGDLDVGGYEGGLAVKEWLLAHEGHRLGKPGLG
smiles,measurement,setting,value
COc1cc(COC(=O)NC(CCCCNC(=O)CCC2(C)N=N2)C(=O)NCCCCC2SCC3NC(=O)NC32)c([N+](=O)[O-])cc1OCCCC(=O)NCc1ccc(COc2nc(N)nc3[nH]cnc23)cc1 (centres unmarked) [AC1],Concentration at which protein is labeled,"KEAP1-SNAP protein; AC1 0-50 μM, 1 or 2 hours, live HEK293T cells",low micromolar concentrations
same,Cell permeability,"KEAP1-SNAP protein; AC1, biotin-labeling of SNAP-FLAG-KEAP1 in live HEK293T cells",cell permeable
same,Cell growth or viability,[1]; AC1 0-50 uM,does not impair cell growth or viability
COc1cc(C(C)OC(=O)NC(CCCCNC(=O)CCC2(C)N=N2)C(=O)NCCCCCNC(=O)CCCCC2SCC3NC(=O)NC32)c([N+](=O)[O-])cc1OCCCC(=O)NCc1ccc(COc2nc(N)nc3[nH]cnc23)cc1 (centres unmarked) [PP1],EC50 of KEAP1-SNAP fusion labeling,"KEAP1-SNAP protein; PP1, live HEK293T cells, 2 hr, not irradiated",low micromolar
same,Cell viability,[1]; PP1 0-45 μM (saturating doses),not affected

# From patent publication US20230137943A1, “PHOTOPROXIMITY PROFILING OF PROTEIN-PROTEIN INTERACTIONS IN CELLS” (The University of Chicago, priority 2019, published 2023)
